The experiment deals with IRAK4 (Homo sapiens (Human), UniProt Q9NWZ3). The experiment is described as follows: IRAK4 kinase activity, IMAP fluorescence polarization assay. As to conditions: 100 μM ATP; read-out: IRAK4 IC50. The class given is biochemical. Put shortly: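 Fluorescence polarization (IMAP nanoparticle binding of phosphopeptide) reports activity after a 30 min, 25 °C reaction. Conditions: 100 μM ATP, 0.5 nM GST-IRAK4, 100 nM fluorescent peptide, 10 mM Tris pH 7.2, 1 mM MgCl2, 1 mM DTT, 0.01% Tween 20.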
On the technique in general: Polarisation of emitted light reports the rotation of a fluorescent probe.

IRAK4, sequence (Q9NWZ3 whole entry): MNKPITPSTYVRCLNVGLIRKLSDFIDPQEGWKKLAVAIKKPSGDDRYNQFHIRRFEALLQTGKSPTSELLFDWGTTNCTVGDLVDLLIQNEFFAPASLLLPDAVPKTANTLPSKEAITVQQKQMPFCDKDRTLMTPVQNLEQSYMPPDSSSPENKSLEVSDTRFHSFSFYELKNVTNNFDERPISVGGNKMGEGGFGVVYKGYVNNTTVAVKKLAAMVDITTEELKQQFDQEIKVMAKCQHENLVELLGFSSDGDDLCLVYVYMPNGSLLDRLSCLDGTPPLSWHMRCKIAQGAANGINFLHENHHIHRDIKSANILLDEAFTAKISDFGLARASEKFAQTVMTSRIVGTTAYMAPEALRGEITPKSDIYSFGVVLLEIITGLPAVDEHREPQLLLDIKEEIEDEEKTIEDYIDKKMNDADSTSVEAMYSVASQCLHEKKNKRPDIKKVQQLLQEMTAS

On to `Cc1cc(N2CCN(c3nc(N[C@@H]4CCCNC4)c(-c4nc5ccccc5s4)c(=O)[nH]3)CC2)sn1` [Example 157, (R)-5-(benzo[d]thiazol-2-yl)-2-(4-(3-methylisothiazol-5-yl)piperazin-1-yl)-6-(piperidin-3-ylamino)pyrimidin-4(3H)-one], for which the half-inhibitory concentration (IC50) is 8 nM.

For the compound `Cc1cnccc1N1CCN(c2nc(N[C@@H]3CCCNC3)c(-c3nc4ccccc4s3)c(=O)[nH]2)CC1` [Example 158, (R)-5-(benzo[d]thiazol-2-yl)-2-(4-(3-methylpyridin-4-yl)piperazin-1-yl)-6-(piperidin-3-ylamino)pyrimidin-4(3H)-one], the IC50 turned out to be 8 nM.

For the compound `Cn1cc(N2CCN(c3nc(N[C@@H]4CCCNC4)c(-c4nc5ccccc5s4)c(=O)[nH]3)CC2)cn1` [Example 159, (R)-5-(benzo[d]thiazol-2-yl)-2-(4-(1-methyl-1H-pyrazol-4-yl)piperazin-1-yl)-6-(piperidin-3-ylamino)pyrimidin-4(3H)-one], the IC50 came out at 20 nM.

As to `Cc1cnc(C)c(N2CCN(c3nc(N[C@@H]4CCCNC4)c(-c4nc5ccccc5s4)c(=O)[nH]3)CC2)n1` [Example 160, (R)-5-(benzo[d]thiazol-2-yl)-2-(4-(3,6-dimethylpyrazin-2-yl)piperazin-1-yl)-6-(piperidin-3-ylamino)pyrimidin-4(3H)-one], the IC50 amounted to 22 nM.

In the case of `COc1ccc(OC)c(N2CCN(c3nc(N[C@@H]4CCCNC4)c(-c4nc5ccccc5s4)c(=O)[nH]3)CC2)c1` [Example 161, (R)-5-(benzo[d]thiazol-2-yl)-2-(4-(2,5-dimethoxyphenyl)piperazin-1-yl)-6-(piperidin-3-ylamino)pyrimidin-4(3H)-one], the concentration for half-maximal inhibition (IC50) was determined as 14 nM.

Turning to `O=c1[nH]c(N2CCN(c3nnc(C4CC4)o3)CC2)nc(N[C@@H]2CCCNC2)c1-c1nc2ccccc2s1` [Example 162, (R)-5-(benzo[d]thiazol-2-yl)-2-(4-(5-cyclopropyl-1,3,4-oxadiazol-2-yl)piperazin-1-yl)-6-(piperidin-3-ylamino)pyrimidin-4(3H)-one], the 50% inhibitory concentration (IC50) stood at 27 nM.

Take `O=c1[nH]c(N2CCN(c3nncs3)CC2)nc(N[C@@H]2CCCNC2)c1-c1nc2ccccc2s1` [Example 163, (R)-2-(4-(1,3,4-thiadiazol-2-yl)piperazin-1-yl)-5-(benzo[d]thiazol-2-yl)-6-(piperidin-3-ylamino)pyrimidin-4(3H)-one]: the half-maximal inhibitory concentration (IC50) worked out at 20 nM.

Turning to `CN(C)[C@@H]1CCN(c2nc(N[C@@H]3CCCNC3)c(-c3ccc4ccccc4n3)c(=O)[nH]2)C1` [Example 164, 2-((R)-3-(dimethylamino)pyrrolidin-1-yl)-6-((R)-piperidin-3-ylamino)-5-(quinolin-2-yl)pyrimidin-4(3H)-one], the IC50 came out at 62 nM.

`CC(=O)NC1CCN(c2nc(N[C@@H]3CCCNC3)c(-c3ccc4ccccc4n3)c(=O)[nH]2)C1` (stereo partly drawn) [Example 165, N-(1-(6-oxo-4-((R)-piperidin-3-ylamino)-5-(quinolin-2-yl)-1,6-dihydropyrimidin-2-yl)pyrrolidin-3-yl)acetamide]: the IC50 worked out at 54 nM.

`CN(C)[C@H]1CCN(c2nc(N[C@@H]3CCCNC3)c(-c3ccc4ccccc4n3)c(=O)[nH]2)C1` [Example 166, 2-((S)-3-(dimethylamino)pyrrolidin-1-yl)-6-((R)-piperidin-3-ylamino)-5-(quinolin-2-yl)pyrimidin-4(3H)-one]: the IC50 was found to be 158 nM.

Turning to `O=c1[nH]c(N2CCC(O)C2)nc(N[C@@H]2CCCNC2)c1-c1ccc2ccccc2n1` (stereo partly drawn) [Example 167, 2-(3-hydroxypyrrolidin-1-yl)-6-((R)-piperidin-3-ylamino)-5-(quinolin-2-yl)pyrimidin-4(3H)-one], the IC50 turned out to be 20 nM.

As to `O=c1[nH]c(N2CC3CC3C2)nc(N[C@@H]2CCCNC2)c1-c1ccc2ccccc2n1` (stereo partly drawn) [Example 168, 2-(3-azabicyclo[3.1.0]hexan-3-yl)-6-((R)-piperidin-3-ylamino)-5-(quinolin-2-yl)pyrimidin-4(3H)-one], the IC50 came out at 34 nM.

The term IC50 denotes the concentration that gives 50% inhibition.
